Data set [1] has as its target T1, Glucocorticoid receptor (Homo sapiens, UniProt P04150).
T1 sequence (P04150 whole entry): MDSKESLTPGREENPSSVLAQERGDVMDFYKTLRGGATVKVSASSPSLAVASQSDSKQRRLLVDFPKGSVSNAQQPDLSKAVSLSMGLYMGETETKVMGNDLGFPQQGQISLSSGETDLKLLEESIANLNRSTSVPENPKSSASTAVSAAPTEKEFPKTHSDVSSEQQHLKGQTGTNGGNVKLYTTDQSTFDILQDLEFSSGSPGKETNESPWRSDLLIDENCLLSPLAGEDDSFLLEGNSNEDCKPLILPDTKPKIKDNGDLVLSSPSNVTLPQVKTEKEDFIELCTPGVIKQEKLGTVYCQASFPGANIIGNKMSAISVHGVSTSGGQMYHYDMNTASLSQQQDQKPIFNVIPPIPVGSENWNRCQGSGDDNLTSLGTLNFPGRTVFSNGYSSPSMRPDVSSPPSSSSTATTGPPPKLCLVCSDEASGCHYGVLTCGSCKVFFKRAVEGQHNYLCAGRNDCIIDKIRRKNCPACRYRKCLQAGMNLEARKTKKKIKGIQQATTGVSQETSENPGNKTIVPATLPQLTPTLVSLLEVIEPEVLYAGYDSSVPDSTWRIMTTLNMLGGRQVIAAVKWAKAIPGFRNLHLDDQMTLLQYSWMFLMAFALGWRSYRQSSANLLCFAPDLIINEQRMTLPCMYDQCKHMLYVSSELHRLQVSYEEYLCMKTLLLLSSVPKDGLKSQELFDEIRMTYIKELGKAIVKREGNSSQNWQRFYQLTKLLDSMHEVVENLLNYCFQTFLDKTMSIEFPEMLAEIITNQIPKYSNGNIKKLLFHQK
The data set can be described thus: Binding affinity to human recombinant GR by competition ligand binding fluorescence polarization assay. Background: Fluorescence polarisation rises when a labelled molecule tumbles more slowly, as on binding a larger partner.

The next data set concerns the target T2, Progesterone receptor (Homo sapiens, UniProt P06401).
T2 sequence (P06401 whole entry): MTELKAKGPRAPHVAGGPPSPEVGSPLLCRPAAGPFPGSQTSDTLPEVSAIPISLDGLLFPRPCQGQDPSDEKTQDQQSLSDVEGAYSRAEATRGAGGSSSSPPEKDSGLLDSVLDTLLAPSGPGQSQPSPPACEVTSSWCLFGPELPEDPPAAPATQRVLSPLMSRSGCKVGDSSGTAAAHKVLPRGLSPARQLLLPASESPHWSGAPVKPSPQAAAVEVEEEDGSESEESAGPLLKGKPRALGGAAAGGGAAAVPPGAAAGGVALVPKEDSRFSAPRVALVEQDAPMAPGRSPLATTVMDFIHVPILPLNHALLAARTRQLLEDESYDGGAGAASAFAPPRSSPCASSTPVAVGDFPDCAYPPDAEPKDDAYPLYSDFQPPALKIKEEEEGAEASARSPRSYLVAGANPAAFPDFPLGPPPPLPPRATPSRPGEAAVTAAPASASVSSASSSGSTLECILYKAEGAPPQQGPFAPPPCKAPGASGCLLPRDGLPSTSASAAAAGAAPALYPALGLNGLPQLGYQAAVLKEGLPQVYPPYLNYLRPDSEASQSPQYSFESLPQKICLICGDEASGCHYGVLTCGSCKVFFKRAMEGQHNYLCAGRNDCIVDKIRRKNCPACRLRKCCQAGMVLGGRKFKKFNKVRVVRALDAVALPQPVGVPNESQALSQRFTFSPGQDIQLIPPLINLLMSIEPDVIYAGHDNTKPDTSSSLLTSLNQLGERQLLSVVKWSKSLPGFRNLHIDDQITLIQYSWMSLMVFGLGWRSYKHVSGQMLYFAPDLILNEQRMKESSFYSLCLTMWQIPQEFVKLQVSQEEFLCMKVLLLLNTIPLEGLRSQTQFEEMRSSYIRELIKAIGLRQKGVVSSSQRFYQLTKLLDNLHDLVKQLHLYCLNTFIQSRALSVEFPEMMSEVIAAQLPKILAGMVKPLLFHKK
Nature of the data set: Binding affinity to human recombinant PR by competition ligand binding fluorescence polarization assay.

A short description of data set [2]: Intrinsic clearance in human liver microsomes measured per mg of protein. It counts as ADME, Microsome. In general terms: Microsomes from liver hold many membrane-bound enzymes, among them those of drug oxidation.
A short description of data set [3]: Solubility of the compound in PBS at pH 7.4. It counts as physicochemical.
Data set [4] in a line: Intrinsic clearance in rat liver microsomes measured per mg of protein. It is filed as ADME, Microsome.
The target in data set [5] is T1, Glucocorticoid receptor. The data set can be described thus: Antagonist activity at human GR […] domain transfected in CHO cells co-transfected with MMTV-luciferase gene assessed as inhibition of cortisol-induced luciferase activity. It is filed as cell-based.
In data set [6] the target is T3, Mineralocorticoid receptor (Homo sapiens, UniProt P08235).
T3 sequence (P08235 whole entry): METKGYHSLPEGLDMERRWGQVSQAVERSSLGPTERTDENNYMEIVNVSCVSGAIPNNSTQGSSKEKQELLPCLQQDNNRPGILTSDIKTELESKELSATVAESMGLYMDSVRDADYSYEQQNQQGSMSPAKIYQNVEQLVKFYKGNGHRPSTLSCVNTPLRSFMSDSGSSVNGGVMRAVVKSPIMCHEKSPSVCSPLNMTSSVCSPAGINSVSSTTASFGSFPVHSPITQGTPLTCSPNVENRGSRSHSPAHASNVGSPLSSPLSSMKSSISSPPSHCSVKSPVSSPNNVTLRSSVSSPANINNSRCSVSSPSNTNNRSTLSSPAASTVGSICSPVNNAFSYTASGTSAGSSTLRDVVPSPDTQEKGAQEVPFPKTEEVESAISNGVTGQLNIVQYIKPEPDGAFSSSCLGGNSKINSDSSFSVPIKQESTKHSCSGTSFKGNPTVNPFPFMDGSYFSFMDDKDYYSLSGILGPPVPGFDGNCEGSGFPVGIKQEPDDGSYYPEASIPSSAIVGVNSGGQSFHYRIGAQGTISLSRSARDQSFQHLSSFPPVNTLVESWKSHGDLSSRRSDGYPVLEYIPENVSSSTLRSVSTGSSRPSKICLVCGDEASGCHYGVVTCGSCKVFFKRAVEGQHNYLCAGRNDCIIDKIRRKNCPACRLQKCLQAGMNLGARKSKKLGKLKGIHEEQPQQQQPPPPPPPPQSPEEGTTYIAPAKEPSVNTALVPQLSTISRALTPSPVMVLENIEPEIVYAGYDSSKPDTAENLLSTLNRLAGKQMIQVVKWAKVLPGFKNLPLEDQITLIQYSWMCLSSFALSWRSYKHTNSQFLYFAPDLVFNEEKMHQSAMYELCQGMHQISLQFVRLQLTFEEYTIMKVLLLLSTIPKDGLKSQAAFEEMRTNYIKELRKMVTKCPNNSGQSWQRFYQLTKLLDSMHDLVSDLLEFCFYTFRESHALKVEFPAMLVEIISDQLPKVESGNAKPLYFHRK
The data set can be described thus: Antagonist activity at human MR ligand binding domain transfected in CHO cells co-transfected with MMTV-luciferase gene assessed as inhibition of cortisol-induced luciferase activity. It counts as cell-based.

A short description of data set [7]: Oral bioavailability in Wistar rat at 10 mg/kg. It counts as ADME, organism-based. The conditions noted are these: in vivo.
A short description of data set [8]: Plasma clearance in Wistar rat at 2 mg/kg, iv; 10 mg/kg, po. It counts as ADME, organism-based.
A short description of data set [9]: Volume of distribution at steady state in Wistar rat at 2 mg/kg, iv; 10 mg/kg, po. It is filed as ADME, organism-based. As to conditions: in vivo, read-out: Vdss.

In brackets after ≈: the same amount, converted by molar mass.

As usually defined, the EC50 is the midpoint of the concentration-response curve. As to `COc1ccc(F)cc1-c1ccc([C@@H](C)NS(=O)(=O)c2c(C)noc2C)cc1`, the 50% effective concentration (EC50) on Glucocorticoid receptor [1] is 5.01 nM; at Progesterone receptor, 200 nM.

`Cc1noc(C)c1-c1ccc(CNS(=O)(=O)c2c(C)noc2C)cc1`: the figures for the concentration for a half-maximal effect (EC50) at Glucocorticoid receptor [1] and on Progesterone receptor were 3.98 nM and 7.94 nM, respectively.

`Cc1noc(C)c1S(=O)(=O)NCc1ccc(-c2ccccc2)cc1`: the results for the EC50 at Glucocorticoid receptor [1] and on Progesterone receptor were 1000 nM and over 10000 nM, respectively.

As for `COc1ccccc1-c1ccc(CNS(=O)(=O)c2c(C)noc2C)cc1`, the concentration for a half-maximal effect (EC50) was 31.6 nM at Glucocorticoid receptor [1] and 200 nM at Progesterone receptor.

For the molecule `COc1ccc(F)cc1-c1ccc(CNS(=O)(=O)c2c(C)noc2C)cc1`, the concentration for a half-maximal effect (EC50) on Glucocorticoid receptor [1] was 12.6 nM; at Progesterone receptor it was 126 nM.

Regarding `COc1ccc(F)cc1-c1ccc(CNS(=O)(=O)c2cc(Cl)ccc2Cl)cc1`, the concentration giving a half-maximal response (EC50) at Glucocorticoid receptor [1] was 2 nM; at Progesterone receptor, 50.1 nM.

For the molecule `COc1ccc(F)cc1-c1ccc([C@H](C)NS(=O)(=O)c2c(C)noc2C)cc1`, the EC50 on Glucocorticoid receptor [1] was 25.1 nM; on Progesterone receptor, 251 nM.

Take `COc1ncccc1-c1ccc([C@@H](C)NS(=O)(=O)c2c(C)noc2C)cc1`: the results for the EC50 on Glucocorticoid receptor [1] and on Progesterone receptor were 25.1 nM and 794 nM, respectively.

By microsomal CLint is commonly meant a measure of how fast metabolising enzymes remove a compound, apart from limits set by blood flow. Low values mean greater metabolic stability, high ones faster metabolism. Take `Cc1noc(C)c1S(=O)(=O)N[C@H](C)c1ccc(-c2cccnc2OC(F)F)cc1`: the concentration giving a half-maximal response (EC50) at Glucocorticoid receptor [1] is 10 nM; on Progesterone receptor, 631 nM. This molecule came in with a microsomal CLint in [2] of over 270 µL/min/mg.

Regarding `COc1ncc(C#N)cc1-c1ccc([C@@H](C)NS(=O)(=O)c2c(C)noc2C)cc1`, the values for the EC50 on Glucocorticoid receptor [1] and on Progesterone receptor were 6.31 nM and 79.4 nM, respectively.

On to `COc1ccc(F)cc1-c1ccc([C@@H](C)NS(=O)(=O)c2cn(C)nc2C(F)(F)F)cc1`, for which the EC50 on Glucocorticoid receptor [1] was 3.98 nM; on Progesterone receptor it was 794 nM.

Turning to `COc1ncccc1-c1ccc([C@@H](C)NS(=O)(=O)c2cn(C)nc2C(F)(F)F)cc1`, the figures for the EC50 on Glucocorticoid receptor [1] and on Progesterone receptor were 12.6 nM and over 10000 nM, respectively.

A word on the solubility: it is the concentration that dissolves in the medium under given conditions. A word on the bioavailability: it is dose-corrected exposure relative to a reference, in per cent. `COc1ncc(C#N)cc1-c1ccc([C@@H](C)NS(=O)(=O)c2cn(C)nc2C(F)(F)F)cc1`: the concentration giving a half-maximal response (EC50) at Glucocorticoid receptor [1] is 12.6 nM; at Progesterone receptor, over 10000 nM; at Glucocorticoid receptor [5], 100 nM; in data set [6] it was over 10000 nM. The same molecule yielded a solubility in data set [3] of 28.9 µg/mL (≈ 62.1 µM). The intrinsic clearance (microsomal CLint) in data set [4] and in data set [2] was under 12 µL/min/mg throughout. In data set [7], this molecule showed a bioavailability of 42%. The same molecule had a clearance in [8] of 9.8 mL/min/kg. Also, the Vd in [9] was 0.7 L/kg.

These data come from ChEMBL document CHEMBL1641565, “Discovery and optimisation of a selective non-steroidal glucocorticoid receptor antagonist” (Bioorg Med Chem Lett, 2011).
